Experimental data reported in patent publication US12456194B2, “Methods for identifying and using cell behavior in drug screening and diagnosis” (Indiana University Research and Technology Corporation, priority 2020, dated 2025).

How the values were obtained:
[1] = system: UN-KC6141 pancreatic cancer cell line; assay: 3D tumor culture T cell infiltration drug screen scored by neural network, UN-KC6141; conditions: UN-KC6141 pancreatic cancer cell line-based screen; library of 141 small molecule epigenetic modulators; averaging the scores of a total of 10 images; FIG. 6
Experimental: (§1) Once the predicted Rd is determined, the predicted Rd for each patient can be classified as depicted in Step 215 of FIG. 2. For example, Rd can be defined as high, medium, and low-survival groups by binning the Rd's by or into risk classifications or categories, such as low survival, medium survival and high survival. Low survival may mean the Rd>75% of TCGA SKCM patient dataset; medium survival may mean Rd=25%-75% of TCGA SKCM patient dataset; and high survival may mean Rd<25% of TCGA SKCM patient dataset. Each risk classification or category may be associated with a predetermined values, such as 0 for low survival (high risk), 1 for medium survival (medium risk), and 2 for high survival (low risk).
(§2) The trained neural network as described in FIG. 1 and FIG. 4 is transferred to 3D tumor culture dataset 305, a drug screening method and/or a companion diagnostic method 300 may be performing using the algorithms discussed above with respect to FIGS. 1, 2 and 4 to objectively quantify and predict/score the effectiveness of a drug or a treatment based on a particular type of TIL behavior within 3D tumor cultures or patent tumor tissue samples. For example, a library of 141 small molecule epigenetic modulators in 2 cancer cell lines (e.g., B16F10 melanoma and UN-KC6141 pancreatic cancer) were screened. […]

[2] = system: B16F10 melanoma cell line; assay: 3D tumor culture T cell infiltration drug screen scored by neural network, B16F10; conditions: B16F10 melanoma cell line-based screen; library of 141 small molecule epigenetic modulators; averaging the scores of a total of 10 images; FIG. 6
Experimental: as §1, §2

For c1ccc([C@@H]2C[C@H]2NC2CCNCC2)cc1 [GSK-LSD1], the “final score (T cell infiltration enhancement activity)” value [1] was “highest score” and the “final score (T cell infiltration enhancement activity)” value [2] was “highest score”.
